The target of experiment [1] is TTK (human) (UniProt P33981). Briefly: SelectScreen, TR FRET. For orientation: Time-resolved FRET reads energy transfer from a long-lived donor to a nearby acceptor.
The target of experiment [2] is TTK (human) (UniProt P33981). Briefly: KINOMEscan competition binding. Particulars: for kinase still bound, per cent of control: compound 10.0 µM.
The target of another experiment is PLK1 (human) (UniProt P53350). Briefly: KINOMEscan competition binding. The settings on record: compound 10.0 µM.
A further experiment deals with RPS6KA2 KD2 (human) (UniProt Q15349). As to the kind of experiment: KINOMEscan competition binding. Particulars: compound 10.0 µM.
The target in another experiment is TNK1 (human) (UniProt Q13470). Briefly: KINOMEscan competition binding. Particulars: compound 10.0 µM.
Another experiment deals with PLK4 (human) (UniProt O00444). As to the kind of experiment: KINOMEscan competition binding. Particulars: compound 10.0 µM.
For another experiment, the target named is PTK2 (human) (UniProt Q05397). Briefly: KINOMEscan competition binding. The settings on record: compound 10.0 µM.
For another experiment, the target named is MAPK7 (human) (UniProt Q13164). As to the kind of experiment: KINOMEscan competition binding. The settings on record: compound 10.0 µM.
The next experiment has as its target FRK (human) (UniProt P42685). As to the kind of experiment: KINOMEscan competition binding. Particulars: compound 10.0 µM.
Another experiment has as its target ULK2 (human) (UniProt Q8IYT8). As to the kind of experiment: KINOMEscan competition binding. The settings on record: compound 10.0 µM.
Another experiment concerns the target DCLK1 (human) (UniProt O15075). Briefly: KINOMEscan competition binding. Particulars: compound 10.0 µM.
The next experiment has as its target DCLK2 (human) (UniProt Q8N568). As to the kind of experiment: KINOMEscan competition binding. Particulars: compound 10.0 µM.
The next experiment has as its target TNK2 (human) (UniProt Q07912). Briefly: KINOMEscan competition binding. The settings on record: compound 10.0 µM.
Another experiment has as its target ALK (human) (UniProt Q9UM73). Briefly: KINOMEscan competition binding. Particulars: compound 10.0 µM.
Another experiment addresses ROS1 (human) (UniProt P08922). As to the kind of experiment: KINOMEscan competition binding. Particulars: compound 10.0 µM.
Experiment [3] has as its system ABL1 (human), P00519 [F317I]. As to the kind of experiment: KINOMEscan competition binding. The settings on record: compound 10.0 µM.
The target in another experiment is STK33 (human) (UniProt Q9BYT3). Briefly: KINOMEscan competition binding. Particulars: compound 10.0 µM.
Experiment [4] has as its system KIT (human), P10721 [V559D]. As to the kind of experiment: KINOMEscan competition binding. The settings on record: compound 10.0 µM.
A further experiment concerns the target FLT3 (human) (UniProt P36888). As to the kind of experiment: KINOMEscan competition binding. Particulars: compound 10.0 µM.
For another experiment, the target named is GAK (human) (UniProt O14976). Briefly: KINOMEscan competition binding. Particulars: compound 10.0 µM.
Another experiment concerns the target CLK2 (human) (UniProt P49760). Briefly: KINOMEscan competition binding. The settings on record: compound 10.0 µM.
Experiment [5] has as its system FLT3 (human), P36888 [K663Q]. As to the kind of experiment: KINOMEscan competition binding. The settings on record: compound 10.0 µM.
In the next experiment the target is PDGFRB (human) (UniProt P09619). As to the kind of experiment: KINOMEscan competition binding. The settings on record: compound 10.0 µM.
The target in the next experiment is KIT (human) (UniProt P10721). As to the kind of experiment: KINOMEscan competition binding. The settings on record: compound 10.0 µM.
For another experiment, the target named is PLK3 (human) (UniProt Q9H4B4). As to the kind of experiment: KINOMEscan competition binding. Particulars: compound 10.0 µM.
The next experiment concerns the target PTK2B (human) (UniProt Q14289). As to the kind of experiment: KINOMEscan competition binding. Particulars: compound 10.0 µM.
For a further experiment, the target named is PIM2 (human) (UniProt Q9P1W9). As to the kind of experiment: SelectScreen, TR FRET.
In a further experiment the target is PIM1 (human) (UniProt P11309). Briefly: SelectScreen, TR FRET.
The next experiment deals with SRPK1 (human) (UniProt Q96SB4). Briefly: KINOMEscan competition binding. Particulars: compound 10.0 µM.
For the next experiment, the target named is MYLK4 (human) (UniProt Q86YV6). Briefly: KINOMEscan competition binding. Particulars: compound 10.0 µM.
A further experiment concerns the target RIOK1 (human) (UniProt Q9BRS2). Briefly: KINOMEscan competition binding. Particulars: compound 10.0 µM.
For another experiment, the target named is MKNK2 (human) (UniProt Q9HBH9). Briefly: KINOMEscan competition binding. The settings on record: compound 10.0 µM.
Another experiment addresses RIOK3 (human) (UniProt O14730). As to the kind of experiment: KINOMEscan competition binding. The settings on record: compound 10.0 µM.
A further experiment concerns the target BMP2K (human) (UniProt Q9NSY1). Briefly: KINOMEscan competition binding. Particulars: compound 10.0 µM.
In the next experiment the target is RIOK2 (human) (UniProt Q9BVS4). As to the kind of experiment: KINOMEscan competition binding. The settings on record: compound 10.0 µM.
The target of a further experiment is MYLK (human) (UniProt Q15746). Briefly: KINOMEscan competition binding. The settings on record: compound 10.0 µM.
A further experiment deals with STK17A (human) (UniProt Q9UEE5). Briefly: KINOMEscan competition binding. Particulars: compound 10.0 µM.
In a further experiment the target is MAP2K3 (human) (UniProt P46734). Briefly: KINOMEscan competition binding. Particulars: compound 10.0 µM.
The target in the next experiment is STK17B (human) (UniProt O94768). As to the kind of experiment: KINOMEscan competition binding. The settings on record: compound 10.0 µM.
Another experiment deals with CAMKK2 (human) (UniProt Q96RR4). As to the kind of experiment: KINOMEscan competition binding. Particulars: compound 10.0 µM.
For experiment [6], the target named is TYK2 JH2 pseudokinase (human) (UniProt P29597). As to the kind of experiment: KINOMEscan competition binding. Particulars: compound 10.0 µM.
The next experiment addresses AAK1 (human) (UniProt Q2M2I8). As to the kind of experiment: KINOMEscan competition binding. Particulars: compound 10.0 µM.
The target of a further experiment is PIM3 (human) (UniProt Q86V86). Briefly: KINOMEscan competition binding. Particulars: compound 10.0 µM.
A further experiment concerns the target SRPK3 (human) (UniProt Q9UPE1). Briefly: KINOMEscan competition binding. The settings on record: compound 10.0 µM.

For 13 molecules, IC50, Kd and kinase still bound, per cent of control results are on record in the kinase profiling compilation of Christmann-Franck et al. (2016).

Usually IC50 stands for the concentration at which inhibition is half-maximal. The low end stands for inhibition by little substance, the high end for a need for much substance. The term Kd denotes the free concentration of one partner at which half of the binding sites on the other are occupied at equilibrium, for simple one-to-one binding.

GAK (human), sequence (O14976 whole entry, looked up): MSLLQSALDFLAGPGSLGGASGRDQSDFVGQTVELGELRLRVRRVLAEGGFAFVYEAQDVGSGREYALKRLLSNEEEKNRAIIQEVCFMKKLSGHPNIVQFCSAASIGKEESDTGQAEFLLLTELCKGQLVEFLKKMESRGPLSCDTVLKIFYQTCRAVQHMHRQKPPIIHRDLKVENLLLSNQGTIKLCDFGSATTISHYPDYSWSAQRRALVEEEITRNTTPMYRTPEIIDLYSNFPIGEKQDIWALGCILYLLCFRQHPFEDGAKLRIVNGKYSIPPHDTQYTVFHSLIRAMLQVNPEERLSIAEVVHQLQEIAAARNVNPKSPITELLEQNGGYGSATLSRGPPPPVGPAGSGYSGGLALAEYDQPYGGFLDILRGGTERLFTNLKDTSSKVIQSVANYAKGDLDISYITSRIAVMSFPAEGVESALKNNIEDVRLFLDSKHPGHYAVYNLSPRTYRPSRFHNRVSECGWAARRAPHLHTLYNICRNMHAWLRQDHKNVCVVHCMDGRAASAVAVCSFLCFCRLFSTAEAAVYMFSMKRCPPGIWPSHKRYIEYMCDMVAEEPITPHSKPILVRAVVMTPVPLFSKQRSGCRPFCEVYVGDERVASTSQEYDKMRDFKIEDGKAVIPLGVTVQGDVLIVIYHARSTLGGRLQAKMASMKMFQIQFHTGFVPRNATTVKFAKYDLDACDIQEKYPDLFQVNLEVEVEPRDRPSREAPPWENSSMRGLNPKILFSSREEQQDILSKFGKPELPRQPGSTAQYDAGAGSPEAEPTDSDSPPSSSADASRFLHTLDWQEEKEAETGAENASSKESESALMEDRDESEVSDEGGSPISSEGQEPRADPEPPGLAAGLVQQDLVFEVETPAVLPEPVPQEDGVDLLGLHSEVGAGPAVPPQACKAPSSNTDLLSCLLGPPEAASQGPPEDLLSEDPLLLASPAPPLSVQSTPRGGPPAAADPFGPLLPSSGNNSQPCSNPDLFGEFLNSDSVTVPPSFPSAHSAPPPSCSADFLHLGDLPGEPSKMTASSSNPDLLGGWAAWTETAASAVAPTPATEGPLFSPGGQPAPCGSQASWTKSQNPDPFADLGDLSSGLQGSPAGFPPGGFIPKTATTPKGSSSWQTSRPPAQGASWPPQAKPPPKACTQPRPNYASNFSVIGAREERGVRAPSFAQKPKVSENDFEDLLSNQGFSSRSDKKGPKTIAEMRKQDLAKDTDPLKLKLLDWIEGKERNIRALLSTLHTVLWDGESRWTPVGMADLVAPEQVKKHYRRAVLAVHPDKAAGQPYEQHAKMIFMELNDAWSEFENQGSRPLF
DCLK2 (human), sequence (Q8N568 whole entry, looked up): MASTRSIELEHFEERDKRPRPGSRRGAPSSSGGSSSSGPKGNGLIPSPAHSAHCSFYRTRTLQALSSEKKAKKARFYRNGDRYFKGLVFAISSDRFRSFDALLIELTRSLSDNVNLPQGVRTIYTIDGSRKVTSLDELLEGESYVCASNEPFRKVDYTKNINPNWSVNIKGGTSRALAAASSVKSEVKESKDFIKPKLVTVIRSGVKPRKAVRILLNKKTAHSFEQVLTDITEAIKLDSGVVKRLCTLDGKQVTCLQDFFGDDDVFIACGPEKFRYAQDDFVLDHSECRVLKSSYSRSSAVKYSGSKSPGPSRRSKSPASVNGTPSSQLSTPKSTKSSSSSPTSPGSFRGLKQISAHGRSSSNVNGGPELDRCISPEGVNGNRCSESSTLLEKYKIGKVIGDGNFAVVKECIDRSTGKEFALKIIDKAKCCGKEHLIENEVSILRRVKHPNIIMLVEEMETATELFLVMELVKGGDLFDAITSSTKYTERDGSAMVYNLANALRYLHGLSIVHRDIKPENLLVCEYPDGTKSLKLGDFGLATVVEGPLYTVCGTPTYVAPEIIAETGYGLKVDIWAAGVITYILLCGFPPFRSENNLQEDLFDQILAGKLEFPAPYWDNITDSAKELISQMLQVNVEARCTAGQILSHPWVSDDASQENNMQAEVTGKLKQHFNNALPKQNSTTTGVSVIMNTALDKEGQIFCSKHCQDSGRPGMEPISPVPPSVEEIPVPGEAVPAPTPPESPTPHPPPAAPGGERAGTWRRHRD
PLK4 (human), sequence (O00444 whole entry, looked up): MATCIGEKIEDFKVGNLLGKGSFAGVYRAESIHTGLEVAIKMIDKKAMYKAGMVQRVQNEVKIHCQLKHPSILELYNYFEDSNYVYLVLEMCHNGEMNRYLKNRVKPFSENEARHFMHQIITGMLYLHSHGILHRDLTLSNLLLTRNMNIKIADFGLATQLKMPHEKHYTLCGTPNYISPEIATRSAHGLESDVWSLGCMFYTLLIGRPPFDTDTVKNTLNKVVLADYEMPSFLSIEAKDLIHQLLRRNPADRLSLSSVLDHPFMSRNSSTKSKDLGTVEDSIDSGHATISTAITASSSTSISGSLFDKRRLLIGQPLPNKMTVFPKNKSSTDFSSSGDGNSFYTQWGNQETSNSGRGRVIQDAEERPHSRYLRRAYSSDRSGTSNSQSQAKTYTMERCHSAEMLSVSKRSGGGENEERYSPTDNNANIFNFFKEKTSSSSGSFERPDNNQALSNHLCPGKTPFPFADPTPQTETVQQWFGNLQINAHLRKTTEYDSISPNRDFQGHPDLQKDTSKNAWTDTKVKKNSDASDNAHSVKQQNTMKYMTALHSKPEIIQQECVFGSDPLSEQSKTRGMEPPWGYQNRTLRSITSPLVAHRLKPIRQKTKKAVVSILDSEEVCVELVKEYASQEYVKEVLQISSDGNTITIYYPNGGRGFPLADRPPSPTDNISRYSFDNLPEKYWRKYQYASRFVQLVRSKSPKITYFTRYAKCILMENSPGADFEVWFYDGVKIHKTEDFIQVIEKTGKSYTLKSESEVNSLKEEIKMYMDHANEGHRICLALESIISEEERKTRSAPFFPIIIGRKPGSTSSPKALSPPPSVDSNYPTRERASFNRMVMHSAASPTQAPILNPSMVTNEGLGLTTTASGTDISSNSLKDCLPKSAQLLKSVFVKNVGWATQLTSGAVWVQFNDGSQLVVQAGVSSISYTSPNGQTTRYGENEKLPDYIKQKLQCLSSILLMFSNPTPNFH
DCLK1 (human), sequence (O15075 whole entry, looked up): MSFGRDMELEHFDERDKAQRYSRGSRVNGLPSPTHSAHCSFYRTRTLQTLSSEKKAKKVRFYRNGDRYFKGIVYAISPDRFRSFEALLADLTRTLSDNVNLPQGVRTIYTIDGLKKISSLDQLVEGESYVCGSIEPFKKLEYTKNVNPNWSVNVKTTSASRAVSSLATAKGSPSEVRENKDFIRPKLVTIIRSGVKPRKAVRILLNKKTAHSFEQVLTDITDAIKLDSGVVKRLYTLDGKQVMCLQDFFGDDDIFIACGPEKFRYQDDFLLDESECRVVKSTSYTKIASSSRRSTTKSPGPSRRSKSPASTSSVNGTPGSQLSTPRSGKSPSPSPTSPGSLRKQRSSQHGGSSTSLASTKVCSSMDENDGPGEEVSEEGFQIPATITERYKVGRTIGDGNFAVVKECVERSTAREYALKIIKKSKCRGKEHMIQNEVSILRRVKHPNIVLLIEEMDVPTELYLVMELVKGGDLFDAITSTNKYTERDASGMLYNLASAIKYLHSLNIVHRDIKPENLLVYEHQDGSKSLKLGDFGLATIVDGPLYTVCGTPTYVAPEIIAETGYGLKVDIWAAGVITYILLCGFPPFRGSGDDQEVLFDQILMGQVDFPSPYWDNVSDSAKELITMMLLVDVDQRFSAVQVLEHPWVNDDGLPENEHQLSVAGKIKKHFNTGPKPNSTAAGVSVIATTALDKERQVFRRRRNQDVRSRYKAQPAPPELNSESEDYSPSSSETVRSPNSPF
TNK1 (human), sequence (Q13470 whole entry, looked up): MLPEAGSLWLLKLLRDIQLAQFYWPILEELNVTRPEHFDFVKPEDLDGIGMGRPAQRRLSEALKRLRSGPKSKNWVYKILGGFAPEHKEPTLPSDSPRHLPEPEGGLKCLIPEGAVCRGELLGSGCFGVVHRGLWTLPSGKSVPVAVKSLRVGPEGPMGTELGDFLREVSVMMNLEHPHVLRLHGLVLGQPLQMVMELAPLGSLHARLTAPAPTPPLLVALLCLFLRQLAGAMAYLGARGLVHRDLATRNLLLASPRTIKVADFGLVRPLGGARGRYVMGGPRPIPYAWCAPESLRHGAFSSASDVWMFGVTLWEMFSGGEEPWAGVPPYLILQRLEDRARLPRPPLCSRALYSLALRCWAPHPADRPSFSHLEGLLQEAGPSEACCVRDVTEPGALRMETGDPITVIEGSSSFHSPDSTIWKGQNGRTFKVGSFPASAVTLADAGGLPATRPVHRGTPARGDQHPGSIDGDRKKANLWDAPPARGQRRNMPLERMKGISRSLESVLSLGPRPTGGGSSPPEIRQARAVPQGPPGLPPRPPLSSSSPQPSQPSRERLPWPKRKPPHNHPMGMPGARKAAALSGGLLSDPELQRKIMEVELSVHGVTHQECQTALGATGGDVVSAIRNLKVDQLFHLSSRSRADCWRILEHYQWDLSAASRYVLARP
STK33 (human), sequence (Q9BYT3 whole entry, looked up): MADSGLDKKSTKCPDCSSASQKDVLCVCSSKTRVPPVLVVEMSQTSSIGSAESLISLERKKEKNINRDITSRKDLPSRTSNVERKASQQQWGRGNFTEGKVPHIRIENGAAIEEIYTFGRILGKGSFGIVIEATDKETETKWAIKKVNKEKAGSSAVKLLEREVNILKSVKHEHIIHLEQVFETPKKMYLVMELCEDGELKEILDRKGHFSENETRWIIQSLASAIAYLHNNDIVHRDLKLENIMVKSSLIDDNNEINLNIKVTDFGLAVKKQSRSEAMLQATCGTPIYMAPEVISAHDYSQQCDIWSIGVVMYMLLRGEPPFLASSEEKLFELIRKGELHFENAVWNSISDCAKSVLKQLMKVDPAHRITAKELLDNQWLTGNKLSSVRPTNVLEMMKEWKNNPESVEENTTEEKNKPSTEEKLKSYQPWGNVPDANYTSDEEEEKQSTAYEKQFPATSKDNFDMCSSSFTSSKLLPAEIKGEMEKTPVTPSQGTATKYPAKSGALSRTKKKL

With `CCN1C(=O)CCN(C2CCCC2)c2nc(Nc3ccc(N4CCC(O)CC4)cc3OC(C)C)ncc21`, the IC50 at TTK (human) [1] amounted to 1090 nM. This molecule also showed a Kd on TTK (human) [2] of 253 nM. Moreover, the kinase still bound, per cent of control on TTK (human) [2] came out at 1.9%; on PLK1 (human), 4.1%; at RPS6KA2 KD2 (human), 12%.
In turn, `CC[C@@H]1C(=O)N(C)c2cnc(Nc3ccc(N4CCCC(O)C4)cc3OC)nc2N1C1CCCC1` (stereo partly drawn) registered a concentration for half-maximal inhibition (IC50) on TTK (human) [1] above 10000 nM. The molecule also returned a Kd at TTK (human) [2] of 2650 nM.
In turn, `CCOc1cc(N2CCC(O)CC2)ccc1Nc1ncc2c(n1)N(C1CCCC1)CCC(=O)N2` displayed an IC50 against TTK (human) [1] of 7450 nM. Also, at TTK (human) [2], the Kd turned out to be 650 nM.
Molecule `CC[C@@H]1C(=O)N(C)c2cnc(Nc3ccc(N(C)CCCO)cc3OC)nc2N1C1CCCC1` showed an IC50 against TTK (human) [1] above 10000 nM. Besides, the equilibrium dissociation constant (Kd) on TTK (human) [2] was 3100 nM.
On to `COc1cc(N2CCN(C)CC2)ccc1Nc1ncc2c(n1)N(C(C)C)c1ccccc1C(=O)N2C`, for which the kinase still bound, per cent of control at TNK1 (human) came to 3.8%; at PLK4 (human), 0.15%; on PTK2 (human), 18%; at MAPK7 (human), 0%; on FRK (human), 31%; at ULK2 (human), 25%. For the same molecule, the kinase still bound, per cent of control at DCLK1 (human) came to 1.2%; on TTK (human) [2], 8%; at PLK1 (human), 25%; on DCLK2 (human) it was 1.2%; at TNK2 (human), 27%; on ALK (human), 14%. In addition, the results for the kinase still bound, per cent of control (on ROS1 (human); in [3]) were 9.2% and 22%, respectively.
`CCN1C(=O)CCN(C2CCCC2)c2nc(Nc3ccc(N4CCC(O)CC4)cn3)ncc21` came in with an IC50 against TTK (human) [1] of 3450 nM. Moreover, the kinase still bound, per cent of control was determined as 23% on STK33 (human); 31% in [4]; 31% on FLT3 (human); 24% on PLK4 (human); 16% at GAK (human); 8.2% on DCLK1 (human). Besides, the kinase still bound, per cent of control on CLK2 (human) was 33%; on TTK (human) [2], 2%; in [5], 27%; on PLK1 (human), 1.8%; at PDGFRB (human), 11%; at DCLK2 (human), 30%. In addition, the kinase still bound, per cent of control was determined as 32% on RPS6KA2 KD2 (human) and 33% on KIT (human). The molecule also registered an equilibrium dissociation constant (Kd) at TTK (human) [2] of 582 nM.
Molecule `COc1cc(N(C)CCCO)ccc1Nc1ncc2c(n1)N(C1CCCC1)CCC(=O)N2C` showed an IC50 at TTK (human) [1] of 640 nM. Also, the kinase still bound, per cent of control on STK33 (human) turned out to be 11%; on TNK1 (human) it was 31%; on PLK4 (human) it was 12%; on PTK2 (human), 16%; on GAK (human) it was 1.9%; at TTK (human) [2], 2.6%. Moreover, the kinase still bound, per cent of control on PLK3 (human) was found to be 0%; on PLK1 (human), 1.7%; at PTK2B (human), 29%. Besides, the Kd at TTK (human) [2] was 58.8 nM.
Turning to `O=C1NC(=S)S/C1=C\c1ccc(-c2cccc3cc[nH]c23)o1`, the concentration for half-maximal inhibition (IC50) against PIM2 (human) turned out to be 509 nM; against TTK (human) [1], 145 nM; against PIM1 (human), 905 nM.
With `NS(=O)(=O)c1ccc(-c2ccc(/C=C3\C(=O)Nc4cccc(Br)c43)o2)cc1`, the kinase still bound, per cent of control was found to be 16% at SRPK1 (human); 1.8% on MYLK4 (human); 15% on RIOK1 (human); 28% on TTK (human) [2]; 34% at MKNK2 (human); 17% on RIOK3 (human). Besides, the kinase still bound, per cent of control on BMP2K (human) is 34%.
In turn, `CC[C@@H]1C(=O)N(C)c2cnc(Nc3ccc(N(C)CCO)cc3OC)nc2N1C1CCCC1` registered an IC50 against TTK (human) [1] above 10000 nM. At TTK (human) [2], this molecule displayed a Kd of 4700 nM.
Regarding `COc1cc(C(=O)NC2CCC(O)CC2)ccc1Nc1ncc2c(n1)N(C1CCCC1)[C@@H]1CCC[C@@H]1C(=O)N2C` (stereo partly drawn), the kinase still bound, per cent of control was found to be 34% on STK33 (human); 0.5% at RIOK2 (human); 14% on TNK1 (human); 4.3% on PLK4 (human); 1.7% at MYLK (human); 14% on MAPK7 (human). Moreover, the kinase still bound, per cent of control at GAK (human) turned out to be 28%; on DCLK1 (human), 8.2%; at STK17A (human) it was 0%; at TTK (human) [2], 32%; on PLK3 (human) it was 0.9%; at MAP2K3 (human) it was 0.3%. The kinase still bound, per cent of control at STK17B (human) amounted to 0%; at PLK1 (human) it was 0%; on CAMKK2 (human), 27%; at DCLK2 (human) it was 17%.
On TTK (human) [1], `CC[C@@H]1C(=O)N(C)c2cnc(Nc3ccc(N4CCC(O)CC4)cc3OC)nc2N1C1CCCC1` registered an IC50 above 10000 nM. The dissociation constant Kd on TTK (human) [2] was determined as 1410 nM.
`NS(=O)(=O)c1ccc(-c2ccc(/C=C3\C(=O)Nc4ccccc43)o2)cc1`: the kinase still bound, per cent of control on SRPK1 (human) turned out to be 12%; at MYLK4 (human) it was 3.1%; at RIOK1 (human) it was 11%; at STK17A (human), 12%; at CLK2 (human), 25%; in [6], 24%. The kinase still bound, per cent of control worked out at 6.2% at RIOK3 (human); 7.7% on BMP2K (human); 23% at AAK1 (human); 28% at PIM3 (human); 26% at SRPK3 (human).
